This assay concerns the target T1, BRM (Homo sapiens, UniProt P51531).
T1 construct: In-Cell Western Screen of BRM Degradation in SW1573 Cells; endogenous in cells; host or cells: SW1573
Nature of the assay: In-cell Western screen of BRM degradation in SW1573 cells (Dmax and DC50). The format is cell-based. Conditions: BRM degradation, SW1573 cells; for DC50: read-out: DC50; for Dmax: when tested at the top concentration of between 0.3 and 10 μM, read-out: Dmax (%) (% degraded). The procedure, abridged:
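SW1573, overnight cpd exposure (18-20 h), 0.1% DMSO final. PFA fix, 0.5% Triton permeabilization, block; IR secondaries at 800/680 nm. Odyssey read → Dmax, DC50.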

As usually defined, the DC50 is the midpoint of the concentration-degradation curve. The Dmax is the greatest extent of degradation seen.

T1 sequence (P51531 whole entry): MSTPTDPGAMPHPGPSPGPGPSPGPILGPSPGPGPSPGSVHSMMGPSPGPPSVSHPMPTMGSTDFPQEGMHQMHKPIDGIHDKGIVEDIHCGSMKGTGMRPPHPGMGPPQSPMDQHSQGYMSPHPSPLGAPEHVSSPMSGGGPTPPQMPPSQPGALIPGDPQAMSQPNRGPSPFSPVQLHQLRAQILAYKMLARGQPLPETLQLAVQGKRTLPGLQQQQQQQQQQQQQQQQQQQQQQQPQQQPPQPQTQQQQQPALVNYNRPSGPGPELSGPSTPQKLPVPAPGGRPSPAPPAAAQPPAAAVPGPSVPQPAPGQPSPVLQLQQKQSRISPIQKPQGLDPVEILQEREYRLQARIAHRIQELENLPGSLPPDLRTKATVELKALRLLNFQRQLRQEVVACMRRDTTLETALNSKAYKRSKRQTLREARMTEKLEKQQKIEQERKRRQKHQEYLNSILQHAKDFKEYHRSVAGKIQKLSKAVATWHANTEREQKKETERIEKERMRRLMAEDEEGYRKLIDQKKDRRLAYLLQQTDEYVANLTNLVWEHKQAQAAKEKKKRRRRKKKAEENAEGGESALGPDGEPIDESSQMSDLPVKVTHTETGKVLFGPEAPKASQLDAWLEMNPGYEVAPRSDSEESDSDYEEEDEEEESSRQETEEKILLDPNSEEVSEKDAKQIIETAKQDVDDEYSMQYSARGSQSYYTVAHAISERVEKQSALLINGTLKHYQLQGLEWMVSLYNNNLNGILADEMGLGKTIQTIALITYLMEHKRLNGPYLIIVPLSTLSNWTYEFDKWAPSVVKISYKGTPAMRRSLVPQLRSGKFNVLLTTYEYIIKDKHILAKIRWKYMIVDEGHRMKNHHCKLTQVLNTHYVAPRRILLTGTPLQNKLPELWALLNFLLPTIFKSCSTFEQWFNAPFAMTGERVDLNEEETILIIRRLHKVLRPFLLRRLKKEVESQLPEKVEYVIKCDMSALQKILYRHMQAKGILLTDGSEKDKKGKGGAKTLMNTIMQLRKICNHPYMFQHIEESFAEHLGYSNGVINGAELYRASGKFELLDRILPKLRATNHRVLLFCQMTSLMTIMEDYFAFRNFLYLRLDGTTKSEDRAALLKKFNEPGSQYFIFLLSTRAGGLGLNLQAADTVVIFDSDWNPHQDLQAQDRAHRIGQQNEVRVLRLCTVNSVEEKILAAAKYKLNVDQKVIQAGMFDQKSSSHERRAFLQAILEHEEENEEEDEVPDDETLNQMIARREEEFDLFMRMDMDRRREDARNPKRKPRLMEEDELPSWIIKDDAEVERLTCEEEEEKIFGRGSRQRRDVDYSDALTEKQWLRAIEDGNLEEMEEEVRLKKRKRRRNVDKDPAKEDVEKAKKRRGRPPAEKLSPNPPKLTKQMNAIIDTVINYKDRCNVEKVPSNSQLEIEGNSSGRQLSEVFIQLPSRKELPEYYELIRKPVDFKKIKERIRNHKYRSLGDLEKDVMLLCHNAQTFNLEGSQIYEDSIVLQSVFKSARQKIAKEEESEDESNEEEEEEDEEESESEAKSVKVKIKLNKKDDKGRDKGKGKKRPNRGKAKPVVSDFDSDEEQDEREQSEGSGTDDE

Consider `Cc1ncsc1-c1ccc(CNC(=O)[C@@H]2C[C@@H](O)CN2C(=O)[C@H](c2cc(OCCOCCOCCOc3cc(N4C5CCC4CN(c4cc(-c6ccccc6O)nnc4N)C5)ccn3)no2)C(C)C)cc1` [compound 27, (2S,4R)-1-[(2S)-2-[3-[2-(2-[2-[(4-[3-[3-amino-6-(2-hydroxyphenyl)pyridazin-4-yl]-3,8-diazabicyclo[3.2.1]octan-8-yl]pyridin-2-yl)oxy]ethoxy]ethoxy)ethoxy]-1,2-oxazol-5-yl]-3-methylbutanoyl]-4-hydroxy-N-[[4-(4-methyl-1,3-thiazol-5-yl)phenyl]methyl]pyrrolidine-2-carboxamide], for which the DC50 is over 30 nM and the Dmax was over 75%.
On the same counts, the results for `Cc1ncsc1-c1ccc(CNC(=O)[C@@H]2C[C@@H](O)CN2C(=O)[C@@H](c2cc(OCCOCCOCCOc3cc(N4C5CCC4CN(c4cc(-c6ccccc6O)nnc4N)C5)ccn3)no2)C(C)C)cc1` [compound 28, (2S,4R)-1-[(2R)-2-[3-[2-(2-[2-[(4-[3-[3-amino-6-(2-hydroxyphenyl)pyridazin-4-yl]-3,8-diazabicyclo[3.2.1]octan-8-yl]pyridin-2-yl)oxy]ethoxy]ethoxy)ethoxy]-1,2-oxazol-5-yl]-3-methylbutanoyl]-4-hydroxy-N-[[4-(4-methyl-1,3-thiazol-5-yl)phenyl]methyl]pyrrolidine-2-carboxamide] are under 2.5 nM and over 75%.
Regarding `Cc1ncsc1-c1ccc(CNC(=O)[C@@H]2C[C@@H](O)CN2C(=O)[C@H](c2cc(OCCOCCOCCOCCOc3cc(N4C5CCC4CN(c4cc(-c6ccccc6O)nnc4N)C5)ccn3)no2)C(C)C)cc1` [compound 29, (2S,4R)-1-[(2S)-2-(3-[[1-(4-[3-[3-amino-6-(2-hydroxyphenyl)pyridazin-4-yl]-3,8-diazabicyclo[3.2.1]octan-8-yl]pyridin-2-yl)-1,4,7,10-tetraoxadodecan-12-yl]oxy]-1,2-oxazol-5-yl)-3-methylbutanoyl]-4-hydroxy-N-[[4-(4-methyl-1,3-thiazol-5-yl)phenyl]methyl]pyrrolidine-2-carboxamide], the DC50 lay in the range of 10 to 30 nM and the greatest degradation seen (Dmax) is over 75%.
As for `Cc1ncsc1-c1ccc(CNC(=O)[C@@H]2C[C@@H](O)CN2C(=O)[C@@H](c2cc(OCCOCCOCCOCCOc3cc(N4C5CCC4CN(c4cc(-c6ccccc6O)nnc4N)C5)ccn3)no2)C(C)C)cc1` [compound 30, (2S,4R)-1-[(2R)-2-(3-[[1-(4-[3-[3-amino-6-(2-hydroxyphenyl)pyridazin-4-yl]-3,8-diazabicyclo[3.2.1]octan-8-yl]pyridin-2-yl)-1,4,7,10-tetraoxadodecan-12-yl]oxy]-1,2-oxazol-5-yl)-3-methylbutanoyl]-4-hydroxy-N-[[4-(4-methyl-1,3-thiazol-5-yl)phenyl]methyl]pyrrolidine-2-carboxamide], the DC50 was under 2.5 nM and the Dmax is over 75%.
As to `Cc1ncsc1-c1ccc(CNC(=O)[C@@H]2C[C@@H](O)CN2C(=O)[C@@H](NC(=O)Cc2ccc(N3CCN(CCOCCCc4cc(N5C6CCC5CN(c5cc(-c7ccccc7O)nnc5N)C6)ccn4)CC3)nc2)C(C)(C)C)cc1` [compound 31, (2S,4R)-1-((2S)-2-(2-(6-(4-(2-(3-(4-(3-(3-amino-6-(2-hydroxyphenyl)pyridazin-4-yl)-3,8-diazabicyclo[3.2.1]octan-8-yl)pyridin-2-yl)propoxy)ethyl)piperazin-1-yl)pyridin-3-yl)acetamido)-3,3-dimethylbutanoyl)-4-hydroxy-N-(4-(4-methylthiazol-5-yl)benzyl)pyrrolidine-2-carboxamide], the DC50 fell in the range of 10 to 30 nM and the Dmax was over 75%.
On the same counts, the results for `Cc1ncsc1-c1ccc(CNC(=O)[C@@H]2C[C@@H](O)CN2C(=O)[C@@H](NC(=O)COCCOCCOCCOc2cccc(N3C[C@H]4C[C@@H]3CN4c3cc(-c4ccccc4O)nnc3N)n2)C(C)(C)C)cc1` [compound 32, (2S,4R)-1-[(2S)-2-(1-[6-[(1R,4R)-5-[3-amino-6-(2-hydroxyphenyl)pyridazin-4-yl]-2,5-diazabicyclo[2.2.1]heptan-2-yl]pyridin-2-yl]-1,4,7,10-tetraoxadodecan-12-amido)-3,3-dimethylbutanoyl]-4-hydroxy-N-[[4-(4-methyl-1,3-thiazol-5-yl)phenyl]methyl]pyrrolidine-2-carboxamide] are over 30 nM and over 75%.
`Cc1ncsc1-c1ccc(CNC(=O)[C@@H]2C[C@@H](O)CN2C(=O)[C@@H](NC(=O)COCCCc2ccc(C(C)n3cc(-c4cc(-c5ccccc5O)nnc4N)cn3)cc2)C(C)(C)C)cc1` (stereo partly drawn) [compound 33, (2S,4R)-1-[(2S)-2-(2-[3-[4-(1-[4-[3-amino-6-(2-hydroxyphenyl)pyridazin-4-yl]-1H-pyrazol-1-yl]ethyl)phenyl]propoxy]acetamido)-3,3-dimethylbutanoyl]-4-hydroxy-N-[[4-(4-methyl-1,3-thiazol-5-yl)phenyl]methyl]pyrrolidine-2-carboxamide]: the DC50 was 2.5 to 10 nM and the Dmax is over 75%.
On to `Cc1ncsc1-c1ccc(CNC(=O)[C@@H]2C[C@@H](O)CN2C(=O)[C@@H](NC(=O)COCCOCCOCCOc2cncc(N3C4CCC3CN(c3cc(-c5ccccc5O)nnc3N)C4)n2)C(C)(C)C)cc1` [compound 34, (2S,4R)-1-[(2S)-2-[1-(6-[3-[3-amino-6-(2-hydroxyphenyl)pyridazin-4-yl]-3,8-diazabicyclo[3.2.1]octan-8-yl]pyrazin-2-yl)-1,4,7,10-tetraoxadodecan-12-amido]-3,3-dimethylbutanoyl]-4-hydroxy-N-[[4-(4-methyl-1,3-thiazol-5-yl)phenyl]methyl]pyrrolidine-2-carboxamide], for which the DC50 was over 30 nM and the Dmax is over 75%.
`Cc1ncsc1-c1ccc([C@H](C)NC(=O)[C@@H]2C[C@@H](O)CN2C(=O)[C@@H](NC(=O)COCCOCCOCCOCCOCCOCCOCCOc2cc(N3C4CCC3CN(c3cc(-c5ccccc5O)nnc3N)C4)ccn2)C(C)(C)C)cc1` [compound 35, (2S,4R)-1-[(2S)-2-[1-(4-[3-[3-amino-6-(2-hydroxyphenyl)pyridazin-4-yl]-3,8-diazabicyclo[3.2.1]octan-8-yl]pyridin-2-yl)-1,4,7,10,13,16,19,22-octaoxatetracosan-24-amido]-3,3-dimethylbutanoyl]-4-hydroxy-N-[(1S)-1-[4-(4-methyl-1,3-thiazol-5-yl)phenyl]ethyl]pyrrolidine-2-carboxamide]: the DC50 was 2.5 to 10 nM and the Dmax is over 75%.
Turning to `Cc1ncsc1-c1ccc(CNC(=O)[C@@H]2C[C@@H](O)CN2C(=O)[C@H](c2cc(OCCOCCOCCCCN3CCOC4(CCN(c5cc(-c6ccccc6O)nnc5N)CC4)C3)no2)C(C)C)cc1` [compound 36, (2S,4R)-1-[(2S)-2-(3-[2-[2-(4-[9-[3-amino-6-(2-hydroxyphenyl)pyridazin-4-yl]-1-oxa-4,9-diazaspiro[5.5]undecan-4-yl]butoxy)ethoxy]ethoxy]-1,2-oxazol-5-yl)-3-methylbutanoyl]-4-hydroxy-N-[[4-(4-methyl-1,3-thiazol-5-yl)phenyl]methyl]pyrrolidine-2-carboxamide], the DC50 was over 30 nM and the Dmax was 50 to 75%.
For `Cc1ncsc1-c1ccc(CNC(=O)[C@@H]2C[C@@H](O)CN2C(=O)[C@@H](c2cc(OCCOCCOCCCCN3CCOC4(CCN(c5cc(-c6ccccc6O)nnc5N)CC4)C3)no2)C(C)C)cc1` [compound 37, (2S,4R)-1-((R)-2-(3-(2-(2-(4-(9-(3-amino-6-(2-hydroxyphenyl)pyridazin-4-yl)-1-oxa-4,9-diazaspiro[5.5]undecan-4-yl)butoxy)ethoxy)ethoxy)isoxazol-5-yl)-3-methylbutanoyl)-4-hydroxy-N-(4-(4-methylthiazol-5-yl)benzyl)pyrrolidine-2-carboxamide], the DC50 lay in the range of 2.5 to 10 nM and the Dmax is over 75%.
As for `Cc1ncsc1-c1ccc(CNC(=O)[C@@H]2C[C@@H](O)CN2C(=O)[C@@H](NC(=O)COCCOCCN2CCN(CCCc3cc(N4C5CCC4CN(c4cc(-c6ccccc6O)nnc4N)C5)ccn3)CC2)C(C)(C)C)cc1` [compound 40, (2S,4R)-1-[(2S)-2-[2-[2-(2-[4-[3-(4-[3-[3-amino-6-(2-hydroxyphenyl)pyridazin-4-yl]-3,8-diazabicyclo[3.2.1]octan-8-yl]pyridin-2-yl)propyl]piperazin-1-yl]ethoxy)ethoxy]acetamido]-3,3-dimethylbutanoyl]-4-hydroxy-N-[[4-(4-methyl-1,3-thiazol-5-yl)phenyl]methyl]pyrrolidine-2-carboxamide], the DC50 was over 30 nM and the Dmax was under 50%.
On the same counts, the results for `Cc1ncsc1-c1ccc(CNC(=O)[C@@H]2C[C@@H](O)CN2C(=O)[C@H](c2cc(OCCN3CCN(CCOc4cc(N5C6CCC5CN(c5cc(-c7ccccc7O)nnc5N)C6)ccn4)CC3)no2)C(C)C)cc1` [compound 41, (2S,4R)-1-[(2S)-2-[3-[2-(4-[2-[(4-[3-[3-amino-6-(2-hydroxyphenyl)pyridazin-4-yl]-3,8-diazabicyclo[3.2.1]octan-8-yl]pyridin-2-yl)oxy]ethyl]piperazin-1-yl)ethoxy]-1,2-oxazol-5-yl]-3-methylbutanoyl]-4-hydroxy-N-[[4-(4-methyl-1,3-thiazol-5-yl)phenyl]methyl]pyrrolidine-2-carboxamide] are 10 to 30 nM and over 75%.
Taken in the same sequence, the figures for `Cc1ncsc1-c1ccc(CNC(=O)[C@@H]2C[C@@H](O)CN2C(=O)[C@@H](c2cc(OCCN3CCN(CCOc4cc(N5C6CCC5CN(c5cc(-c7ccccc7O)nnc5N)C6)ccn4)CC3)no2)C(C)C)cc1` [compound 42, (2S,4R)-1-[(2R)-2-[3-[2-(4-[2-[(4-[3-[3-amino-6-(2-hydroxyphenyl)pyridazin-4-yl]-3,8-diazabicyclo[3.2.1]octan-8-yl]pyridin-2-yl)oxy]ethyl]piperazin-1-yl)ethoxy]-1,2-oxazol-5-yl]-3-methylbutanoyl]-4-hydroxy-N-[[4-(4-methyl-1,3-thiazol-5-yl)phenyl]methyl]pyrrolidine-2-carboxamide] were under 2.5 nM and over 75%.

Values taken from US12539292B2, “BRM targeting compounds and associated methods of use” (Arvinas Operations, Inc., priority 2018, dated 2026).
